# Test results taken from US20090314217A1, “APPARATUS AND METHOD FOR TREATING NON-HUMAN MAMMALS” (Under The Boardwalk Properties 8 (Proprietary) Limited, priority 2006, published 2009).
# Like-named read-outs stand apart in the source and are kept apart here.
# Key:
# [1] = Haematocrit in horses with billiary treated in apparatus 10; format: in vivo, horse; details: after two treatment sessions, increased from 31
smiles,measurement,setting,value
O=[O+][O-] [ozone],discomfort during the treatment,"five horses, during treatment",none of the horses appeared to be uncomfortable
same,respiration of the horses during treatment,"five horses, during treatment",increased
same,motion marks in the rest of the ride,"horse Moniq, after treatment on day 1 and day 2, motion 1 throughout day 1",no motion marks
same,muscle spasms found by physiotherapist,"horse Moniq, day 2 and day 3 of race, lumbar spasms confirmed on day 1 before treatment",no muscle spasms
same,creatine kinase,"horse Moniq, treated on day 1 and day 2 of race, lowered from 3873",706
same,rider's report on second and third days of the race,"horse Ophelia, dehydrated and fatigued on day 1, treated after first and second day",felt very strong and consistent
same,performance on third day of the race,"horse Shamon, severe fatigue by day 2, treated in the afternoon of day 2, finished fifteenth",rode very well
same,CK and AST levels,horses that presented symptoms of tying-up,marked decrease
same,occurrence of muscle spasms,horses treated transdermally with ozone,significantly reduced
same,energy levels and stamina,horses with general fatigue from constant hard work and competition,marked improvement
same,motion marks or stiffness during the race,"mare Pauli, pre-treatments before the race, history of gluteal muscle spasms and tying up, finished fourteenth",no motion marks or stiffness
same,owner's report on second and third days of the race,"mare Viola, treated on first and second day",felt much stronger and looser
same,aspertine amino transferase,"mare Viola, treated on first and second day, lowered from more than 2000",1814 U/L
same,creatine kinase,"mare Viola, tying up on day 1, treated on first and second day, lowered from 5896",1599 IU/K
same,average heart-rate during treatment,"non-accustomed horses, enclosure 42-45 °C, oxygen flow 1 l/min to ozonator",42 beats per minute
same,muscle stiffness caused by long periods of intense exercise,preliminary study on endurance horses,benefit to reduce muscle stiffness
same,haematocrit,[1],38%
